From US20240217926A1, “1,6-NAPHTHALENEDITHIOL PRODUCT AND PROCESS FOR PRODUCING THE SAME” (SUGAI CHEMICAL INDUSTRY CO., LTD., priority 2022, published 2024)

What was measured:
[1] = Heat stability by differential scanning calorimetry (DSC); assay type: physicochemical; settings: heat stability data by DSC
Description: Specifically, 2,7-naphthalenedithiol (2,7-form) described in the Patent Document 1 has a melting point of 186 to 188° C., 2,6-naphthalenedithiol (2,6-form) has a melting point of 196 to 197° C., and 1,5-naphthalenedithiol (1,5-form) described in the Nonpatent Document 1 has a melting point of 120 to 121° C. Thus, these positional isomers of naphthalenedithiol each have a high melting point and are expected to show boiling point elevation due to hydrogen bonds of mercapto groups. […] Thus, it is technically difficult to adopt purification of these naphthalenedithiols by distillation at a relatively high temperature. For example, when 1,5-form, 2,6-form, and 2,7-form are tried to be distilled under vacuum, an outflow (or exit) line is to be maintained at a high temperature in order to prevent crystallization. However, such a high temperature of the outflow line causes not only easy re-evaporation of the naphthalenedithiols in the outflow line but also crystallization and clogging of the naphthalenedithiols in a subsequent line, thus making it impossible to operate the distillation.

[2] = Dissolubility (maximum dissolved concentration in organic solvents, by HPLC); assay type: physicochemical; settings: 25° C.; for Dissolubility DMF: N,N-dimethylformamide; for Dissolubility PGMEA: propylene glycol monomethyl ether acetate; for Dissolubility THF: tetrahydrofuran
Description: In each of predetermined solvents described in the Table below, a sample was mixed at a temperature of 25° C., and the dissolubility of the sample was evaluated. In more detail, the sample was added to a predetermined amount of a solvent until the sample could not be dissolved, and the sample content of the liquid phase (the solvent phase) of the resulting mixture was analyzed using an HPLC (“SPD-20A” manufactured by SHIMADZU CORPORATION), and thus the concentration (the maximum dissolved concentration) of the sample in the liquid phase (the solvent phase) was determined as a solubility.

| SMILES | temperature at which weight decreases by 5% or more [1] [°C] | Dissolubility DMF [2] [% by mass] | Dissolubility Ethyl acetate [2] [% by mass] | Dissolubility Methanol [2] [% by mass] | Dissolubility PGMEA [2] [% by mass] | Dissolubility THF [2] [% by mass] | Dissolubility Toluene [2] [% by mass] |
| --- | --- | --- | --- | --- | --- | --- | --- |
| Sc1cccc2c(S)cccc12 [Comparative Example 5, 1,5-naphthalenedithiol] | 176 | 34.4 | 7.05 | 1.08 | 7.44 | 29.0 | 7.26 |
| Sc1ccc2cc(S)ccc2c1 [Comparative Example 6, 2,6-naphthalenedithiol] | 196 | 3.54 | 0.65 | 0.11 | 0.73 | 4.03 | 0.64 |
| Sc1ccc2ccc(S)cc2c1 [Comparative Example 7, 2,7-naphthalenedithiol] | 188 | 7.75 | 0.90 | 0.16 | 1.05 | 5.24 | 0.76 |
| Sc1ccc2c(S)cccc2c1 [Example 1, 1,6-naphthalenedithiol] |  |  |  | 19.3 |  |  |  |
